The values below come from patent US7786141B2 (Vertex Pharmaceuticals Incorporated, priority 2004, dated 2010).

One assay addresses T1, M4 muscarinic receptor (Homo sapiens, UniProt P08173).
T1 construct: expressed in transfected cells; host or cells: CHO (M4-CHO)
T1 sequence (P08173 1-479): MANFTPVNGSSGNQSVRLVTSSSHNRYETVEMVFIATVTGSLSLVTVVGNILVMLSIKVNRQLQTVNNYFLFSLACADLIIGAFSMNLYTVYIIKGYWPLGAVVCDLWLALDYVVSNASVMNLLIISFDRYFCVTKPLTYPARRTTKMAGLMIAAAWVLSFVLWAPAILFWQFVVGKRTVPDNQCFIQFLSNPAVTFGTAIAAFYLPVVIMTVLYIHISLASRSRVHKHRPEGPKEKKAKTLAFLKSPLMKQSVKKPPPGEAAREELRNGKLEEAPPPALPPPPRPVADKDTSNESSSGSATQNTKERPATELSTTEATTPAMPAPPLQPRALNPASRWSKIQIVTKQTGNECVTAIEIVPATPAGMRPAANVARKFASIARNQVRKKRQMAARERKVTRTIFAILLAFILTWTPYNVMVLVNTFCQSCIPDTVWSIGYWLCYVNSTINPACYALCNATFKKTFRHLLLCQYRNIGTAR
The assay can be described thus: Functional mobilization of intracellular calcium (FLIPR) in M4-CHO cells. Type of assay: cell-based. The note with it: M4 receptor, calcium mobilization; for Emax: read-out: M4 Efficacy. As for the experimental part:
(§1) Functional Mobilization of Intracellular Calcium to Determine Muscarinic Receptor Activity:
(§2) CHO cells expressing muscarinic receptors (M1 to M5) are grown as monolayers in tissue culture flasks at 37° C. in a humidified atmosphere containing 5% CO2 and passaged every 3-5 days. The growth media is Dulbecco's modified eagles medium (DMEM, Gibco Cat# 12430-054), containing 25 mM Hepes and supplemented with Fetal Bovine Serum (Hyclone, cat# SH30071.03), 0.1 mM of MEM non-essential amino acids (GIBCO, Cat# 11140-050), 1 mM MEM Sodium Pyruvate (GIBCO Cat# 11360-070) and 100 units/ml of Penicillin G and 100 μg/ml of Streptomycin (GIBCO Cat# 15140-122). The recombinant muscarinic receptor cell lines are grown under antibiotic pressure with media containing 25 μg/ml zeocin and 500 μg/ml G418 (M1-CHO), 4 μg/ml puromycin, 50 μg/ml zeocin and 2.5 μg/ml blasticidin (M2 and M4-CHO) or 50 μg/ml zeocin and 4 μg/ml puromycin (M3 and M5-CHO).
(§3) Cells are harvested at 80-90% confluence using Versene (GIBCO Cat# 15040-066), collected by centrifugation and seeded 18-24 hrs prior to running the calcium assay at a density of 5,000 cells/well in back-walled, clear-bottomed 384-well plates (BD Biocoat, poly-D-lysine, Cat#356663). The day of the experiment, the cells are washed with a plate washer (Bioteck Instruments, ELX 405) using bath 1 buffer (140-mM NaCl, 4.5-mM KCl, 2-mM CaCl2, 1-mM MgCl2, 10-mM Hepes-Na, 10-mM Glucose, pH 7.4, with NaOH) containing 1 mM Probenecid. Next, the calcium dye Fluo-3 (25 μl/well of Fluo-3 AM at 4 μM, Molecular Probes F-1241, in Bath 1 buffer containing 1 mM Probenecid) is added to the 25 μl of Bath 1 remaining in each well after the plate wash and the dye is loaded at 37° C. in the tissue culture incubator for 60-90 min. The fluorescent dye is removed using the plate washer with Bath 1 containing 1 mM Probenecid, leaving 25 μl/well of this solution after the wash. Alternatively, cells can be loaded with the calcium indicator from Molecular Devices (Calcium 3 Assay Reagents, Cat # R7181) adding 5 μl of a 5× solution dye in Bath 1 containing 1 mM Probenecid (10 ml per dye flask cat# R7182 to generate a solution 20×) to 20 μl of the same buffer. After loading for 60 min, the experiment can be run without having to remove the dye.
(§4) Compounds are prepared at a 2× fold concentration in a 96-well plate (round bottom, Costar Corning cat# 3656), by reconstituting the pre-spotted compounds in bath 1 containing 1 mM probenecid. The final concentration DMSO is 0.5%, and the amount of DMSO is normalized across the assay plate. To determine an agonist action of the compounds on muscarinic receptors, the reconstituted compounds are added (25 μl compound/well) to the cell assay plate (containing 25 μl/well) using the multi-channel robotic system of the FLIPR 3 Instrument (Molecular Devices, Sunnyvale, Calif.). To determine a functional inhibitory action of the compounds on muscarinic receptors, the reconstituted compounds are added (25 μl compound/well) to the assay plate and pre-incubated for 15 min prior to adding 25 μl of Carbachol at 3× the EC80 for each muscarinic subtype. Alternatively, the compounds can be co-applied simultaneously with the agonist. In both assay modes, the fluorescence is recorded for 60 sec (excitation wavelength is […] and emission wavelength 540 nm) using the FLIPR 3 instrument.
(§5) The potency, efficacy and selectivity of the muscarinic compounds were evaluated by screening the compound activity across the whole family (M1 to M5 cells). Compounds were also screened for activity on other proteins such as other GPCRs and ion channels to determine selectivity on M4 receptors.
Background: Calcium assays in cells follow changes in intracellular calcium, usually with a dye or a luminescent sensor.

The next assay addresses T2, M1 muscarinic receptor (Homo sapiens, UniProt P11229).
T2 construct: expressed in transfected cells; host or cells: CHO (M1-CHO)
T2 sequence (P11229 1-460): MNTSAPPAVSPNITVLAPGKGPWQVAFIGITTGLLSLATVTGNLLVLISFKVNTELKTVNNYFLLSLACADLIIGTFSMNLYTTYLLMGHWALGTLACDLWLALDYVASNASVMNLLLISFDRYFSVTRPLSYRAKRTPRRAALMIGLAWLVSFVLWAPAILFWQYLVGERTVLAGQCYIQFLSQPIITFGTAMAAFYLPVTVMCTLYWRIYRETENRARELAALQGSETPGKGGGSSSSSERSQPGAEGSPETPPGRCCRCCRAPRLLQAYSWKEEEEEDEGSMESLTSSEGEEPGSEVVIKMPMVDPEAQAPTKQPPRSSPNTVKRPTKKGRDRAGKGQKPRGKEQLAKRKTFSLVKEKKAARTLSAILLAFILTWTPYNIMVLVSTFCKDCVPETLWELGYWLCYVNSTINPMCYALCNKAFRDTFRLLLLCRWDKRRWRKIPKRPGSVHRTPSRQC
The assay can be described thus: Functional mobilization of intracellular calcium (FLIPR) in M1-CHO cells. In kind it is cell-based. As to conditions: M1 receptor, calcium mobilization; for Emax: read-out: M1 Efficacy. The protocol:
as §1, §2, §3, §4, §5

SMILES strings stand for the structures.

On to `CCCOC(=O)N1CCC(CN2CCC3(CC2)C[C@H](NC(C)=O)c2ccccc23)CC1` [compound 36], for which, on M4 muscarinic receptor, the “M4 Activity” value was “xx (activity was measured to be between 0.1 μM and 1.0 μM)”; the Emax is above 85%. At M1 muscarinic receptor, the “M1 Activity” value is on record as “xxx (activity was measured to be less than 0.1 μM)” and the Emax was 65 to 85%.
In the case of `Clc1ccc2c(c1)C1(CCN(C3CCOCC3)CC1)CN2` [compound 37], on M4 muscarinic receptor, the “M4 Activity” value was “xx (activity was measured to be between 0.1 μM and 1.0 μM)”; the Emax was above 85%. Also, on M1 muscarinic receptor, the “M1 Activity” value is listed as “xxx (activity was measured to be less than 0.1 μM)” and the Emax was 65 to 85%.
As for `CCOC(=O)N1CCC(N2CCC3(CC2)CN(C(=O)OCCOC)c2ccc(F)cc23)CC1` [compound 38], at M4 muscarinic receptor, the “M4 Activity” value is on record as “xxx (activity was measured to be less than 0.1 μM)” and the Emax was above 85%. Further, on M1 muscarinic receptor, the “M1 Activity” value was “xxx (activity was measured to be less than 0.1 μM)” and the Emax is above 85%.
In the case of `CCOC(=O)N1CCC(N2CCC3(CC2)CN(C(=O)N(C)C)c2ccc(F)cc23)CC1` [compound 39], at M4 muscarinic receptor, the “M4 Activity” value was “xx (activity was measured to be between 0.1 μM and 1.0 μM)”; the Emax was above 85%. Besides, on M1 muscarinic receptor, the “M1 Activity” value was “xxx (activity was measured to be less than 0.1 μM)” and the Emax lay in the range of 65 to 85%.
Turning to `CCOC(=O)N1CCC(N2CCC3(CC2)CN(C(=O)c2ccc(OC)cc2)c2ccc(F)cc23)CC1` [compound 41], on M4 muscarinic receptor, the “M4 Activity” value is on record as “xxx (activity was measured to be less than 0.1 μM)” and the Emax is above 85%. Further, at M1 muscarinic receptor, the “M1 Activity” value is “xxx (activity was measured to be less than 0.1 μM)” and the Emax is above 85%.
On to `CCOC(=O)N1C2CCC1CC(N1CCC3(CC1)COc1ccc(F)cc13)C2` (centres unmarked) [compound 42], for which, at M4 muscarinic receptor, the “M4 Activity” value was “xx (activity was measured to be between 0.1 μM and 1.0 μM)”; the Emax is above 85%. Further, at M1 muscarinic receptor, the “M1 Activity” value is “xxx (activity was measured to be less than 0.1 μM)” and the Emax is above 85%.
Take `O=C(O[C@@H]1CCOC1)N1C2CCC1CC(N1CCC3(CCc4ccccc43)CC1)C2` (some centres unmarked) [compound 43]: on M4 muscarinic receptor, the “M4 Activity” value was “x (activity was measured to be greater than 1.0 μM)” and the Emax is above 85%. At M1 muscarinic receptor, the “M1 Activity” value is given as “xxx (activity was measured to be less than 0.1 μM)” and the Emax is above 85%.
Consider `COC(=O)N1C2CCC1CC(N1CCC3(CC1)CN(C(=O)c1cc(C)n(C)n1)c1ccc(F)cc13)C2` (centres unmarked) [compound 44], for which, at M4 muscarinic receptor, the “M4 Activity” value is “xx (activity was measured to be between 0.1 μM and 1.0 μM)”; the Emax is above 85%. On M1 muscarinic receptor, the “M1 Activity” value is on record as “xxx (activity was measured to be less than 0.1 μM)” and the Emax was in the range of 65 to 85%.
As to `CCOC(=O)N1CCC(N2CCC3(CC2)CN(C(=O)c2cccc(OC)c2)c2ccc(F)cc23)CC1` [compound 45], on M4 muscarinic receptor, the “M4 Activity” value is on record as “xxx (activity was measured to be less than 0.1 μM)” and the Emax was 65 to 85%. For the same compound, at M1 muscarinic receptor, the “M1 Activity” value is given as “xxx (activity was measured to be less than 0.1 μM)” and the Emax is above 85%.
As for `CCOC(=O)N1CCC(CN2CCC3(CC2)CN(C(C)=O)c2ccc(C)cc23)CC1` [compound 46], at M4 muscarinic receptor, the “M4 Activity” value is listed as “xxx (activity was measured to be less than 0.1 μM)” and the Emax is 65 to 85%. At M1 muscarinic receptor, the “M1 Activity” value is listed as “xxx (activity was measured to be less than 0.1 μM)” and the Emax was above 85%.
`CC(=O)N1CC2(CCN(C3CC4CCC(C3)N4C(=O)O[C@H]3CCOC3)CC2)c2cc(F)ccc21` (some centres unmarked) [compound 47]: on M4 muscarinic receptor, the “M4 Activity” value is “xx (activity was measured to be between 0.1 μM and 1.0 μM)”; the Emax fell in the range of 65 to 85%. For the same compound, on M1 muscarinic receptor, the “M1 Activity” value is given as “xxx (activity was measured to be less than 0.1 μM)” and the Emax lay within 65 to 85%.
As to `CN(C)C(=O)N1CC2(CCN(C3CCN(C(=O)OCCF)CC3)CC2)c2cc(F)ccc21` [compound 48], on M4 muscarinic receptor, the “M4 Activity” value was “xx (activity was measured to be between 0.1 μM and 1.0 μM)”; the Emax was in the range of 65 to 85%. For the same compound, at M1 muscarinic receptor, the “M1 Activity” value is reported as “xxx (activity was measured to be less than 0.1 μM)” and the Emax was above 85%.
As to `CCOC(=O)N1CCC(N2CCC3(CC2)CN(C(=O)O[C@H]2CCOC2)c2ccc(F)cc23)CC1` [compound 49], on M4 muscarinic receptor, the “M4 Activity” value is reported as “xxx (activity was measured to be less than 0.1 μM)” and the Emax fell in the range of 65 to 85%. On M1 muscarinic receptor, the “M1 Activity” value is “xxx (activity was measured to be less than 0.1 μM)” and the Emax is above 85%.
Regarding `CCOC(=O)N1C2CCC1CC(N1CCC3(CC1)CN(C(=O)c1cc(C)n(C)n1)c1ccc(F)cc13)C2` (centres unmarked) [compound 50], on M4 muscarinic receptor, the “M4 Activity” value is “xx (activity was measured to be between 0.1 μM and 1.0 μM)”; the Emax was above 85%. For the same compound, at M1 muscarinic receptor, the “M1 Activity” value was “xxx (activity was measured to be less than 0.1 μM)” and the Emax is above 85%.
As to `Cc1ccc2c(c1)C1(CCN(C3CC4CCC3C4)CC1)CN2C(=O)C1CC1` (centres unmarked) [compound 51], on M4 muscarinic receptor, the “M4 Activity” value is “xx (activity was measured to be between 0.1 μM and 1.0 μM)”; the Emax lay within 65 to 85%. Also, at M1 muscarinic receptor, the “M1 Activity” value is reported as “xxx (activity was measured to be less than 0.1 μM)” and the Emax lay in the range of 65 to 85%.
For `CC(=O)N1CC2(CCN(C3CCCCC3C)CC2)c2cc(F)ccc21` (centres unmarked) [compound 52], on M4 muscarinic receptor, the “M4 Activity” value is recorded as “xxx (activity was measured to be less than 0.1 μM)” and the Emax fell in the range of 65 to 85%. Also, at M1 muscarinic receptor, the “M1 Activity” value is on record as “xxx (activity was measured to be less than 0.1 μM)” and the Emax is above 85%.
As for `CCOC(=O)N1CCC(N2CCC3(CC2)CN(C(=O)c2ccccc2C)c2ccc(F)cc23)CC1` [compound 53], at M4 muscarinic receptor, the “M4 Activity” value was “xx (activity was measured to be between 0.1 μM and 1.0 μM)”; the Emax was in the range of 65 to 85%. Besides, at M1 muscarinic receptor, the “M1 Activity” value is “xx (activity was measured to be between 0.1 μM and 1.0 μM)”; the Emax was below 65%.
